Assays:
[1] = biological target: T1, 11β-hydroxysteroid dehydrogenase type 1 (11β-HSD1) (Homo sapiens, UniProt P28845); test: cortisone to cortisol conversion in pooled human liver microsomes, cortisol ELISA; type: cell-based
T1 construct: gene HSD11B1

[2] = biological target: T2, 11β-hydroxysteroid dehydrogenase type 2 (11β-HSD2) (Homo sapiens, UniProt P80365); test: cortisol to cortisone conversion in human kidney microsomes, cortisol ELISA; type: cell-based
T2 construct: gene HSD11B2
T2 sequence (P80365 1-405): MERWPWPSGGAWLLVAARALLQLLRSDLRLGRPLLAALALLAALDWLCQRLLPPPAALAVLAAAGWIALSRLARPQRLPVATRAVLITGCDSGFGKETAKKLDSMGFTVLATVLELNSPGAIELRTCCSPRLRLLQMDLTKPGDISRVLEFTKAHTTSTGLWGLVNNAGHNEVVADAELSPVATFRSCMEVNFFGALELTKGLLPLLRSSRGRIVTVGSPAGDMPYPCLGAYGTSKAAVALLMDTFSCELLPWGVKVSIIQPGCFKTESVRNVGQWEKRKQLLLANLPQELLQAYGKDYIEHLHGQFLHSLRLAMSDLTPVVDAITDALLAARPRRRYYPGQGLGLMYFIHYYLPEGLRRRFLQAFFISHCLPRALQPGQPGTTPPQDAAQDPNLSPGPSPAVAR

T1 sequence (P28845 whole entry): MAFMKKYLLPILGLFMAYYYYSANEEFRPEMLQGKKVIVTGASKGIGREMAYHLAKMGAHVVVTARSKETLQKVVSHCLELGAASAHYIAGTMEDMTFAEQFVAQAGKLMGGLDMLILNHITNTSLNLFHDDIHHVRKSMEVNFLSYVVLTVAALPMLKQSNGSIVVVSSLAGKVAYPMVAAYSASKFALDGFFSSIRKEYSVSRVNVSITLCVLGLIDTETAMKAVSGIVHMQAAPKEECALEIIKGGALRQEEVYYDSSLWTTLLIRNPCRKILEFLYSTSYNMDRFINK

Structure (SMILES) | inhibition at 10 µM [1] [%] | inhibition at 10 µM [2] [%]
CC(C)(C)NC1=NC(=O)C2(CCCCC2)S1 [3h, 2-(tert-Butylamino)-1-thia-3-azaspiro[4.5]dec-2-en-4-one] | 82.5 | 
CC(C)(C)NC1=NC(=O)C(c2ccccc2)S1 (centres unmarked) [3f, 2-(tert-Butylamino)-5-phenylthiazol-4(5H)-one] |  | 53.6
